Like-named read-outs stand apart in the source and are kept apart here.
How the values were obtained:
[1] = Hygroscopicity of crystalline Form-SA; format: physicochemical; conditions: crystalline solid
[2] = crystal forms disclosed by Zimmermann et al, U.S.'051; cited from earlier work
[3] = compared with the α-crystal form; disclosed in U.S.'051; cited from earlier work

Compound | hygroscopicity [1] | hygroscopicity [2] | thermodynamic stability [3]
Cc1ccc(NC(=O)c2ccc(CN3CCN(C)CC3)cc2)cc1Nc1nccc(-c2cccnc2)n1 [Form-SA, 4-[(4-Methyl-1-piperazinyl)methyl]-N-[4-methyl-3-[[4-(3-pyridinyl)-2-pyrimidinyl]amino]-phenyl]benzamide methanesulfonate] | non-hygroscopic | – | –
CS(=O)(=O)O.Cc1ccc(NC(=O)c2ccc(CN3CCN(C)CC3)cc2)cc1Nc1nccc(-c2cccnc2)n1 [a-crystal form] | – | hygroscopic | –
CS(=O)(=O)O.Cc1ccc(NC(=O)c2ccc(CN3CCN(C)CC3)cc2)cc1Nc1nccc(-c2cccnc2)n1 [β-crystal form] | – | less hygroscopic than the α-crystal form | thermodynamically more stable at temperatures below 140 °C

— US20160122315A1, “CRYSTALLINE IMATINIB MESYLATE PROCESS” (SHILPA MEDICARE LIMITED, priority 2013, published 2016)
